This assay has as its system HUVEC. Description: NO production (nitrite, NO2, in culture supernatant by HPLC) after adding samples to HUVEC. Conditions: citrulline final concentration 0.3 mM, 24-hour culture, vs control (PBS). It counts as cell-based, human. Here is the method: The cells were cultured in at 37° C., in 5% CO2 incubator, and used for experiment after 4 to 6 passages. Citrulline and reduced glutathione were obtained from Kyowa Hakko Bio.
A cell suspension (0.45 mL) with the adjusted initial cell concentration of 5×10^5 cells/mL was inoculated in a 24-well plate (IWAKI).
Media with the sole addition of solvent (PBS) were used as a control group. After 24-hour culture, the cell culture (100 μL) was centrifuged at 12,000 rpm for 10 minutes, and the concentration of nitrite (NO2), which is the stable NO metabolite, in culture supernatant was quantified by HPLC (ENO-20, EICOM).

For `NC(=O)NCCC[C@H](N)C(=O)O` [citrulline, L-citrulline], the “effect on NO production (nitrite concentration in culture supernatant)” value was “no effect”.
